Experiments:
Type in all cases: cell-based
HEK293 [1] = assay: Selectivity ratio of IC50 for PGD2 receptor in human platelets to IC50 for human EP1 receptor expressed in HEK293 cells by cAMP accumulation assay
HEK293 [2] = assay: Selectivity ratio of IC50 for PGD2 receptor in human platelets to IC50 for human EP2 receptor expressed in HEK293 cells by cAMP accumulation assay
HEK293 [3] = assay: Selectivity ratio of IC50 for PGD2 receptor in human platelets to IC50 for human EP3 receptor expressed in HEK293 cells by cAMP accumulation assay
HEK293 [4] = assay: Selectivity ratio of IC50 for PGD2 receptor in human platelets to IC50 for human EP4 receptor expressed in HEK293 cells by cAMP accumulation assay
HEK293 [5] = assay: Selectivity ratio of IC50 for PGD2 receptor in human platelets to IC50 for human FP receptor expressed in HEK293 cells by cAMP accumulation assay
HEK293 [6] = assay: Selectivity ratio of IC50 for PGD2 receptor in human platelets to IC50 for human TP receptor expressed in HEK293 cells by cAMP accumulation assay
HEK293 [7] = assay: Selectivity ratio of IC50 for PGD2 receptor in human platelets to IC50 for human IP receptor expressed in HEK293 cells by cAMP accumulation assay

Measured: Ratio IC50

CC(C)Oc1ccc(S(=O)(=O)N2CCN(c3ccc(-c4ncco4)c(OCC(=O)O)c3)CC2)cn1
> 20: all assays above

CC(C)Oc1ccc(S(=O)(=O)N2CCN(c3ccc(C(=O)NCC4CC4)c(OCC(=O)O)c3)CC2)cc1
> 20: all assays above

CC(C)Oc1ccc(S(=O)(=O)N2CCN(c3ccc(C(=O)Nc4ccccc4)c(OCC(=O)O)c3)CC2)cc1
> 20: all assays above

CC(C)Oc1ccc(S(=O)(=O)N2CCN(c3ccc(Cl)c(OCC(=O)O)c3)C(C)C2)cc1 (stereo not given)
> 20: all assays above

CC(C)Oc1ccc(S(=O)(=O)N2CCN(c3ccc(C(=O)Nc4cc(C5CC5)n[nH]4)c(OCC(=O)O)c3)CC2)cc1
> 20: all assays above

Cc1cc(OCC(=O)O)cc(N2CCN(S(=O)(=O)c3ccc(OC(C)C)cc3)CC2)c1
> 20: all assays above

CC(C)Oc1ccc(S(=O)(=O)N2CCN(c3ccc(Cl)c(OCC(=O)O)c3)CC2)cn1
> 20: all assays above

CC(C)Oc1ccc(S(=O)(=O)N2CCN(c3ccc(Cl)c(OCC(=O)O)c3)CC2C)cc1 (stereo not given)
> 20: all assays above

CC(C)Oc1ccc(S(=O)(=O)N2CCN(c3ccc(Cl)c(CC(=O)O)c3)CC2)cc1
> 20: all assays above

COCC#Cc1cc(OCC(=O)O)cc(N2CCN(S(=O)(=O)c3ccc(OC(C)C)cc3)CC2)c1
> 20: all assays above

CC(C)Oc1ccc(S(=O)(=O)N2CCN(c3cc(F)cc(OCC(=O)O)c3)CC2)cc1
> 20: all assays above

CC(C)Oc1ccc(S(=O)(=O)N2CCN(c3ccc(-c4nccs4)c(OCC(=O)O)c3)CC2)cc1
> 20: all assays above

CC(C)Oc1ccc(S(=O)(=O)N2CCN(c3ccc(Oc4ccccc4)c(OCC(=O)O)c3)CC2)cc1
> 20: all assays above

CC(C)Oc1ccc(S(=O)(=O)N2CCN(c3cccc(OCC(=O)O)n3)CC2)cc1
> 20: all assays above

COC(=O)Nc1ccc(N2CCN(S(=O)(=O)c3ccc(OC(C)C)cc3)CC2)cc1OCC(=O)O
> 20: all assays above

CC(C)Oc1ccc(S(=O)(=O)N2CCC(Oc3ccc(F)cc3CCC(=O)O)CC2)cc1
> 20: all assays above

CC(C)Oc1ccc(S(=O)(=O)N2CCN(c3ccc(NC(=O)c4ccco4)c(OCC(=O)O)c3)CC2)cc1
> 20: all assays above

CC(C)Oc1ccc(S(=O)(=O)N2CCN(c3ccc(C(=O)NCc4ccco4)c(OCC(=O)O)c3)CC2)cc1
> 20: all assays above

CNC(=O)c1ccc(N2CCN(S(=O)(=O)c3ccc(OC(C)C)cc3)CC2)cc1OCC(=O)O
> 20: all assays above

CC(C)Oc1ccc(S(=O)(=O)N2CC=C(c3ccc(Cl)c(OCC(=O)O)c3)CC2)cc1
> 20: all assays above

CC(C)Oc1ccc(S(=O)(=O)N2CCN(c3cc(F)c(F)c(OCC(=O)O)c3)CC2)cn1
> 20: all assays above

CC(C)NC(=O)Nc1ccc(N2CCN(S(=O)(=O)c3ccc(OC(C)C)cc3)CC2)cc1OCC(=O)O
> 20: all assays above

CC(C)Oc1ccc(S(=O)(=O)N2CCN(c3cc(OCC(=O)O)cc(-c4ccoc4)c3)CC2)cc1
> 20: all assays above

CC(C)Oc1ccc(S(=O)(=O)N2CCN(c3ccc(-c4ccccc4)c(OCC(=O)O)c3)CC2)cc1
> 20: all assays above

CC(C)Oc1ccc(S(=O)(=O)N2CCN(c3ccc(-n4cccn4)c(OCC(=O)O)c3)CC2)cc1
> 20: all assays above
